Source: paper PMC13489962, “Small-molecule modulation of β-arrestins” (Nature, 2026)
Entries after “also recorded” stand apart in the source; their conditions may differ.

What was measured:
Gαi = test: ITC binding to purified Gαi
Procedure: ITC measurements were performed on a MicroCal iTC200 system at 25 °C. Prior to ITC experiments, all proteins (βARR1, βARR2 or βARR1 mutants) were extensively dialysed against 20 mM HEPES (pH 7.4), 100 mM NaCl, and 3 μM TCEP. Protein concentrations were determined by spectrophotometry at 280 nm, using extinction coefficients calculated from each protein sequence via the ProtParam program. The dialysis buffer was used to dilute DMSO stock solutions of β-arrestin small-molecule modulators to their final concentrations for measurements. For each ITC experiment, β-arrestin modulators (Cmpd-5 at 350 μM, Cmpd-46 at 450 μM, and Cmpd-64 at 450 μM) were loaded into the syringe and titrated into the calorimetric cell containing βARR1, βARR1 mutants or βARR2 (at about 30–40 μM, depending on the protein and experiment). Additional ITC experiments were also performed using purified GST-fused Gα subunits (Gαs, Gαq and Gαi; about 30 μM) and Gαiβγ heterotrimer (about 30 μM). Gα subunits were prepared in the same buffer (20 mM HEPES, pH 7.4, 100 mM NaCl, 3 μM TCEP), whereas the Gαiβγ heterotrimer was maintained in buffer supplemented with 0.05% DDM and 10 μM GDP, with matched DMSO carrier conditions. Modulators (300 μM) or corresponding DMSO controls were loaded and titrated as described above. The reference cell was filled with distilled water. In all experiments, the titration sequence typically consisted of an initial 0.4 μl injection, followed by 19 injections of 2 μl each, with a 180-s interval between injections to allow thermal power to return to baseline. During the experiment, the reference power was set to 7 μcal s^−1, and the sample cell was stirred continuously at 750 rpm. […] Data were analysed and fit using a one-site independent binding model to obtain the equilibrium dissociation constant, Kd (from the association constant Ka = 1/Kd), stoichiometry (N), and thermodynamic parameters including enthalpy (ΔH) and entropy (−TΔS) of binding. Data were analysed using MicroCal PEAQ-ITC analysis software (v1.1.0.1262).

[1] = tested on: β2AR desensitization (cAMP); test: FRET (ICUE2) cAMP accumulation, β2AR desensitization; type: cell-based; conditions: 40 μM, 5 min; Iso 10 μM; HEK293 cells stably expressing β2AR
Procedure: To measure cellular cAMP production in live cells mediated by stimulatory G protein, Gαs-coupled β2AR activation, FRET-based Epac sensors were used as described previously. The Epac2 (ICUE2) sensor contains a CFP and YFP FRET pair. HEK293 cells stably expressing ICUE2 were plated in poly-D-lysine-coated, black, clear-bottom 96-well plates (Corning) at a density of 50,000 cells per well. At least 16 h after plating, cells were washed with PBS and incubated in HEPES-buffered saline solution (10 mM HEPES, 150 mM NaCl, 5 mM KCl, 1.5 mM MgCl2, 1.5 mM CaCl2, 10 mM glucose, 0.2% BSA, pH 7.4) for 1 h at 37 °C. Cells were then treated with either β-arrestin small-molecule modulators (40 μM) or DMSO for 5 min, and baseline fluorescence was monitored. Real-time cAMP measurement was initiated by stimulating cells with 10 μM Iso at 37 °C. FRET changes corresponding to cAMP accumulation were measured as changes in the background-subtracted 480 nm/535 nm fluorescence emission ratio (CFP/YFP), reflecting changes in cAMP levels. The entire cAMP accumulation profile was quantified by calculating the AUC for the time course. To assess the effect of modulators on the agonist-induced cAMP response, AUC values were expressed as a percentage of the response to Iso in the presence of DMSO (set as 100%), enabling comparison of the effect of each modulator relative to this agonist-alone control.

βARR1–SRC interaction = target: T1, βARR1–SRC interaction (Rattus norvegicus, UniProt P29066); test: Flag pulldown of βARR1 with SRC; type: biochemical; conditions: 20-fold molar excess of compound, 30 min
T1 construct: made in house
T1 sequence (P29066 whole entry): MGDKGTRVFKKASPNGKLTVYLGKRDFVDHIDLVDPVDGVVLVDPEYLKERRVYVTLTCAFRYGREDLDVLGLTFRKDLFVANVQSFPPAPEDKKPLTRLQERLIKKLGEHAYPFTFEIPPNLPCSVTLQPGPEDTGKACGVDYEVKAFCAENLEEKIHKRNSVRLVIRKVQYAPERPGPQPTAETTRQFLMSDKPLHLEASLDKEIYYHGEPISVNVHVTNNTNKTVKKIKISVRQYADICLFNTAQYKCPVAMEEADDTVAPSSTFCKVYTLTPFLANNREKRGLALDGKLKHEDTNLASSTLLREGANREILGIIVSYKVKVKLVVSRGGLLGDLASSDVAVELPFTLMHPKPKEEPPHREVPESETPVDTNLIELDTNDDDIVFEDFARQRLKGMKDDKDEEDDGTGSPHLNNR
Procedure: (§1) To assess the effects of the compounds on βARR1 interactions with its effector proteins SRC and JNK3, βARR1–Flag (5 μM) was incubated with a 20-fold molar excess of Cmpd-5, Cmpd-46 or Cmpd-64 for 30 min at room temperature. Subsequently, 15 μM of SRC or JNK3 was added. To evaluate compound effects on βARR1–ERK2 binding, βARR1 (15 μM) was pre-incubated with a 20-fold molar excess of Cmpd-5, Cmpd-46 or Cmpd-64 for 30 min at room temperature, followed by the addition of 5 μM ERK2–Flag. Afterward, 50 μl of anti-Flag M2 affinity gel (Millipore Sigma) was added, and the mixtures were incubated for 1 h at room temperature with rotation. The resin was then collected by centrifugation and washed 3 times with 1 ml of 20 mM HEPES (pH 7.5), 100 mM NaCl. Bound proteins were eluted using 0.2 mg ml^−1 Flag peptide in 20 mM HEPES (pH 7.5), 100 mM NaCl, mixed with Laemmli sample buffer (Bio-Rad), and analysed by SDS–PAGE followed by western blotting. Detection was performed using monoclonal anti-Flag M2-peroxidase (HRP) antibody (1:2,000, Sigma-Aldrich A8592, RRID:AB_439702) for βARR1–Flag and ERK2–Flag; polyclonal A1CT antibody[76] (1:5,000) for βARR1; anti-SRC monoclonal antibody (1:10,000, EMD Millipore 05-184, RRID:AB_2302631) for SRC; and anti-JNK3 monoclonal antibody (1:5,000, Cell Signaling 2305, RRID:AB_2281744) for JNK3. Western blot images were taken using Bio-Rad ChemiDoc system and the densitometry analysis was performed by ImageLab v6.1 and statistical differences were determined by one-way ANOVA with Dunnett’s post hoc test in GraphPad Prism software.

βARR1–ERK2 interaction = target: T2, βARR1–ERK2 interaction (Rattus norvegicus, UniProt P29066); test: Flag pulldown of βARR1 with ERK2; type: biochemical; conditions: 20-fold molar excess of compound, 30 min
T2 construct: βARR1 or βARR2 construct, with their C terminus truncated (at amino acid 393 or 394, respectively); GST (pGEX4T1) (N, cleaved yes); made in house
T2 sequence (P29066 1-393): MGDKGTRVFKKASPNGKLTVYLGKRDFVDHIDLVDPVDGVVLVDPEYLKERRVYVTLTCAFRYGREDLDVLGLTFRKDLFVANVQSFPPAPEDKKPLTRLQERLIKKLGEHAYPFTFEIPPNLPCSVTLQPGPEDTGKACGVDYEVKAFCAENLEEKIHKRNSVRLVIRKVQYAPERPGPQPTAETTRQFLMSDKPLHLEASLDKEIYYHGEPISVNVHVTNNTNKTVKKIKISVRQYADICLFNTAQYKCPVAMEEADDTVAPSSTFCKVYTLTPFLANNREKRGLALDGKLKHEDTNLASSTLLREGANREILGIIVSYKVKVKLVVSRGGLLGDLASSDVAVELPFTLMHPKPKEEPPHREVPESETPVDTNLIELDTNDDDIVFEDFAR
Procedure: as §1

SMILES | binding to Gαi (Gαi) | Iso-induced cAMP accumulation (AUC) relative to DMSO (set to 100%) [1] | effect on βARR1 binding to SRC (βARR1–SRC interaction) | effect on βARR1 binding to ERK2 (βARR1–ERK2 interaction)
C=C1C(=O)C2=CC1CCC(=O)C1(C)CCC(OCC)C(C)(C)C1CC2O (stereo not drawn) [Cmpd-46, (Z)-3-ethoxy-6-hydroxy-4,4,13a-trimethyl-9-methylene-1,2,3,4,4a,5,6,9,10,11,12,13a-dodecahydro-7,10-(metheno)benzo[11]annulene-8,13-dione] | no measurable affinity | 207% | markedly reduced | reduced
C=C1C(=O)OC2CC3(C)OC3CCC(C)=CC(OC(C)=O)C12 (stereo not drawn) [Cmpd-64, (Z)-4,10a-dimethyl-7-methylene-8-oxo-1a,2,3,6,6a,7,8,9a,10,10a decahydrooxireno[2’,3’:8,9]cyclodeca[1,2-b]furan-6-yl acetate] | very weak binding | 282% | markedly reduced | reduced
C=C1C(=O)[C@]23[C@H](O)[C@H]1CC[C@H]2[C@@]12CO[C@]3(O)[C@@H](O)[C@@H]1C(C)(C)CC[C@@H]2O [Cmpd-5, (1S,4aR,5S,6S,6aR,9S,11aS,11bS,14R)-1,5,6,14-tetrahydroxy−4,4-dimethyl-8-methylenedecahydro-1H-6,11b-(epoxymethano)-6a,9-methanocyclohepta[a]naphthalen-7(8H)-one] | no measurable affinity | 191% | reduced | reduced; also recorded: significantly inhibited
